Here are results for 23 compounds from patent publication US9718788B2, “Heteroaryl compounds useful as inhibitors of E1 activating enzymes” (MILLENNIUM PHARMACEUTICALS, INC., priority 2006, dated 2017).

Some results are limits rather than exact numbers.

In this test the target is T1, recombinant human NAE enzyme (Homo sapiens, UniProt Q8TBC4).
T1 construct: His (N); made in house; host or cells: Sf9 insect cells (baculovirus, Bac-to-Bac)
T1 sequence (Q8TBC4 1-463): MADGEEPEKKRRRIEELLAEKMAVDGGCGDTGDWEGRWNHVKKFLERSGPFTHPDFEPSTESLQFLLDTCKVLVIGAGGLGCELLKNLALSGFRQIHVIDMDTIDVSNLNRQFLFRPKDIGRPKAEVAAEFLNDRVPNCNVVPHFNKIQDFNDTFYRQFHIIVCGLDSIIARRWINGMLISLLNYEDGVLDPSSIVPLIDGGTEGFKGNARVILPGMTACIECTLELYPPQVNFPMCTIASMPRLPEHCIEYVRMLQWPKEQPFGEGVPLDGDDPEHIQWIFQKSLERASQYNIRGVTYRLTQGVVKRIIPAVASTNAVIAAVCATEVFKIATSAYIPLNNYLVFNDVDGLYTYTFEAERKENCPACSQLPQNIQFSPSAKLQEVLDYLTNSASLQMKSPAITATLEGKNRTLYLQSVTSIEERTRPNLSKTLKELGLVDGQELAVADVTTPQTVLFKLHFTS
T1 sequence (Q13564 1-534 partner): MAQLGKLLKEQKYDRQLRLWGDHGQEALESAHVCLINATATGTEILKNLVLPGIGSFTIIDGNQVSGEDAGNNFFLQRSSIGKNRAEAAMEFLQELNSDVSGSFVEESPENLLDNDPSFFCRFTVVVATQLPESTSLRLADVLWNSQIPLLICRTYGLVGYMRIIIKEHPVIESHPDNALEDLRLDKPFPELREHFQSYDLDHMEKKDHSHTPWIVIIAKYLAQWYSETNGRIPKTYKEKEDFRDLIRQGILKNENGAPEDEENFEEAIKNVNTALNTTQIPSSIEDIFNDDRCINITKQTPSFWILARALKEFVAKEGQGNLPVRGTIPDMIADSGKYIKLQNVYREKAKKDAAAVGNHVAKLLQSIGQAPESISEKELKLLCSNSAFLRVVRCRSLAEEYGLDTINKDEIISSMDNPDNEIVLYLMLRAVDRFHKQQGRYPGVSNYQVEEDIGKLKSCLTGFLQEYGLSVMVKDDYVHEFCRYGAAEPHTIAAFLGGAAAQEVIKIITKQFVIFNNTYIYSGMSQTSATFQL
Briefly: Nedd8-Activating Enzyme (NAE) HTRF Assay. Type of test: biochemical. To be noted: 20 μM ATP. The procedure, abridged: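 Recombinant human NAE (NAEα/His-NAEβ from Sf9 cells) at 0.20 nM with 20 μM ATP, 0.01 μM Ubc12-GST and 0.075 μM Nedd8-Flag in HEPES pH 7.5, 105 min at 24° C. EDTA stop; Eu-anti-FLAG/APC-anti-GST HTRF read after 1 h.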
Background: TR-FRET usually uses a lanthanide donor and a delayed reading to cut background.

As to `NS(=O)(=O)OC[C@H]1C[C@@H](Nc2ccnc(NCc3ccccc3)n2)[C@H](O)[C@@H]1O` [Compound I-7, ((1R,2R,3S,4R)-4-{[2-(benzylamino)pyrimidin-4-yl]amino}-2,3-dihydroxycyclopentyl)methyl sulfamate], the IC50 (commonly the concentration that inhibits the measured activity by half) (bound given in nM) is over 500 nM and the IC50 (bound given in μM) was under 10000 nM.
For `CO[C@H]1Cc2ccccc2[C@H]1Nc1ncnc(O[C@@H]2C[C@@H](COS(N)(=O)=O)[C@@H](O)C2)c1F` [Compound I-83, {(1S,2S,4R)-4-[(5-fluoro-6-{[(1R,2S)-2-methoxy-2,3-dihydro-1H-inden-1-yl]amino}pyrimidin-4-yl)oxy]-2-hydroxycyclopentyl}methyl sulfamate], the IC50 (bound given in nM) was at most 500 nM.
The same measure, in the same setting: with `NS(=O)(=O)OC[C@H]1C[C@@H](Nc2cc(Nc3cccc4c3CCCC4)ncn2)[C@H](O)[C@@H]1O` [Compound I-118, ((1R,2R,3S,4R)-2,3-dihydroxy-4-{[6-(5,6,7,8-tetrahydronaphthalen-1-ylamino)pyrimidin-4-yl]amino}cyclopentyl)methyl sulfamate] the figure was at most 500 nM.
On the same count and under the same terms, with `CO[C@H]1CCc2ccccc2[C@H]1Nc1cc(O[C@@H]2C[C@@H](COS(N)(=O)=O)[C@@H](O)C2)ncn1` [Compound I-142, {(1S,2S,4R)-2-hydroxy-4-[(6-{[(1R,2S)-2-methoxy-1,2,3,4-tetrahydronaphthalen-1-yl]amino}pyrimidin-4-yl)oxy]cyclopentyl}methyl sulfamate] the figure was at most 500 nM.
Take `Cc1nc(N)cc(N[C@@H]2C[C@H](COS(N)(=O)=O)[C@@H](O)[C@H]2O)n1` [Compound I-13, {(1R,2R,3S,4R)-4-[(6-amino-2-methylpyrimidin-4-yl)amino]-2,3-dihydroxycyclopentyl}methyl sulfamate]: the IC50 (bound given in μM) was over 10000 nM.
With `NS(=O)(=O)OC[C@@H]1C[C@@H](Oc2cc(NC3CCCC3)ncn2)C[C@@H]1O` [Compound I-127, ((1S,2S,4R)-4-{[6-(cyclopentylamino)pyrimidin-4-yl]oxy}-2-hydroxycyclopentyl)methyl sulfamate], the IC50 by setting is: (bound given in nM) over 500 nM; (bound given in μM) under 10000 nM.
With `NS(=O)(=O)OC[C@H]1C[C@@H](Nc2cc(CCc3ccccc3)ncn2)[C@H](O)[C@@H]1O` [Compound I-86, ((1R,2R,3S,4R)-2,3-dihydroxy-4-{[6-(2-phenylethyl)pyrimidin-4-yl]amino}cyclopentyl)-methyl sulfamate], the IC50 (bound given in nM) was over 500 nM and the IC50 (bound given in μM) was under 10000 nM.
As to `CC1(C)C[C@H](Nc2cc(N[C@@H]3C[C@H](COS(N)(=O)=O)[C@@H](O)[C@H]3O)ncn2)c2ccccc21` [Compound I-21, {(1R,2R,3S,4R)-4-[(6-{[(1S)-3,3-dimethyl-2,3-dihydro-1H-inden-1-yl]amino}-pyrimidin-4-yl)amino]-2,3-dihydroxycyclopentyl}methyl sulfamate], where the note is “bound given in nM”, the IC50 was at most 500 nM.
With `CO[C@H]1Cc2ccccc2[C@H]1Nc1cc(O[C@@H]2C[C@@H](COS(N)(=O)=O)[C@@H](O)C2)ncn1` [Compound I-115, {(1S,2S,4R)-2-hydroxy-4-[(6-{[(1R,2S)-2-methoxy-2,3-dihydro-1H-inden-1-yl]amino}pyrimidin-4-yl)oxy]cyclopentyl}methyl sulfamate], the concentration for half-maximal inhibition (IC50) (bound given in nM) was at most 500 nM.
Regarding `NS(=O)(=O)OC[C@H]1C[C@@H](Nc2cc(N[C@H]3CCc4c(Cl)cccc43)ncn2)[C@H](O)[C@@H]1O` [Compound I-24, {(1R,2R,3S,4R)-4-[(6-{[(1S)-4-chloro-2,3-dihydro-1H-inden-1-yl]amino}-pyrimidin-4-yl)-amino]-2,3-dihydroxycyclopentyl}methyl sulfamate], under “bound given in nM”, the IC50 is at most 500 nM.
As to `NS(=O)(=O)OC[C@@H]1C[C@@H](Nc2ncnc3[nH]c(-c4ccccc4)cc23)C[C@@H]1O` [Compound I-38, {(1S,2S,4R)-2-hydroxy-4-[(6-phenyl-7H-pyrrolo[2,3-d]pyrimidin-4-yl)-amino]cyclopentyl}methyl sulfamate], where the note is “bound given in nM”, the IC50 is at most 500 nM.
Turning to `CC1(C)C[C@H](Nc2ncnc(N[C@@H]3C[C@@H](COS(N)(=O)=O)[C@@H](O)C3)c2F)c2ccccc21` [Compound I-71, {(1S,2S,4R)-4-[(6-{[(1S)-3,3-dimethyl-2,3-dihydro-1H-inden-1-yl]amino}-5-fluoropyrimidin-4-yl)amino]-2-hydroxycyclopentyl}methyl sulfamate], the IC50 (bound given in nM) is at most 500 nM.
On the same count and under the same terms, with `NS(=O)(=O)OC[C@@H]1C[C@@H](Oc2ncnc3[nH]c(-c4cccc5ccccc45)nc23)C[C@@H]1O` [Compound I-87, ((1S,2S,4R)-2-hydroxy-4-{[8-(1-naphthyl)-9H-purin-6-yl]oxy}cyclopentyl)methyl sulfamate] the figure was at most 500 nM; with `Cc1cccc(Sc2nc3ncnc(O[C@@H]4C[C@@H](COS(N)(=O)=O)[C@@H](O)C4)c3[nH]2)c1` [Compound I-136, [(1S,2S,4R)-2-hydroxy-4-({8-[(3-methylphenyl)sulfanyl]-7H-purin-6-yl}oxy)cyclopentyl]methyl sulfamate], at most 500 nM; with `NS(=O)(=O)OC[C@@H]1C[C@@H](Nc2ncnc3[nH]c(-c4cccc5c4OCCO5)nc23)C[C@@H]1O` [Compound I-41, ((1S,2S,4R)-4-{[8-(2,3-dihydro-1,4-benzodioxin-5-yl)-9H-purin-6-yl]amino}-2-hydroxycyclopentyl)methyl sulfamate], at most 500 nM.
As for `NS(=O)(=O)OC[C@H]1C[C@@H](NC(=O)c2ccncc2)[C@H](O)[C@@H]1O` [Compound I-28, [(1R,2R,3S,4R)-2,3-dihydroxy-4-(isonicotinoylamino)cyclopentyl]methyl sulfamate], the 50% inhibitory concentration (IC50) (bound given in nM) was over 500 nM and the half-inhibitory concentration (IC50) (bound given in μM) was under 10000 nM.
Regarding `CC1(C)C[C@H](Nc2cc(N[C@@H]3C[C@@H](COS(N)(=O)=O)[C@@H](O)C3)ncn2)c2ccccc21` [Compound I-65, {(1S,2S,4R)-4-[(6-{[(1S)-3,3-dimethyl-2,3-dihydro-1H-inden-1-yl]amino}-pyrimidin-4-yl)amino]-2-hydroxycyclopentyl}methyl sulfamate], the IC50 (bound given in nM) is at most 500 nM.
The same measure, in the same setting: for `NS(=O)(=O)OC[C@@H]1C[C@@H](Nc2c(Cl)cnc3[nH]c(-c4cccc5ccccc45)nc23)C[C@@H]1O` [Compound I-56, ((1S,2S,4R)-4-{[6-chloro-2-(1-naphthyl)-3H-imidazo[4,5-b]pyridin-7-yl]amino}-2-hydroxycyclopentyl)methyl sulfamate] the value was at most 500 nM; for `C[C@H]1Cc2ccccc2[C@H]1Nc1cc(O[C@@H]2C[C@@H](COS(N)(=O)=O)[C@@H](O)C2)ncn1` [Compound I-43, {(1S,2S,4R)-2-hydroxy-4-[(6-{[(1S,2S)-2-methyl-2,3-dihydro-1H-inden-1-yl]-amino}pyrimidin-4-yl)oxy]cyclopentyl}methyl sulfamate], at most 500 nM.
With `CO[C@@H]1c2ccccc2C[C@@H]1Oc1cc(O[C@@H]2C[C@@H](COS(N)(=O)=O)[C@@H](O)C2)ncn1` [Compound I-79, {(1S,2S,4R)-2-hydroxy-4-[(6-{[(1R,2S)-1-methoxy-2,3-dihydro-1H-inden-2-yl]oxy}-pyrimidin-4-yl)oxy]cyclopentyl}methyl sulfamate], the IC50 by setting is: (bound given in nM) over 500 nM; (bound given in μM) under 10000 nM.
As to `NS(=O)(=O)OC[C@H]1C[C@@H](Nc2ncnc(N[C@H]3CCc4ccccc43)n2)[C@H](O)[C@@H]1O` [Compound I-26, [(1R,2R,3S,4R)-4-({4-[(1S)-2,3-dihydro-1H-inden-1-ylamino]-1,3,5-triazin-2-yl}-amino)-2,3-dihydroxycyclopentyl]methyl sulfamate], the IC50 (bound given in nM) is at most 500 nM.
For `NS(=O)(=O)OC[C@@H]1C[C@@H](Nc2ncnc3nc(-c4cccc5c4OCC5)[nH]c23)C[C@@H]1O` [Compound I-117, ((1S,2S,4R)-4-{[8-(2,3-dihydro-1-benzofuran-7-yl)-7H-purin-6-yl]amino}-2-hydroxycyclopentyl)methyl sulfamate], where the note is “bound given in nM”, the 50% inhibitory concentration (IC50) is at most 500 nM.
As for `NS(=O)(=O)OC[C@@H]1C[C@@H](Nc2ncnc(N[C@@H]3c4ccccc4CC3(F)F)n2)C[C@@H]1O` [Compound I-147, {(1S,2S,4R)-4-[(4-{[(1R)-2,2-difluoro-2,3-dihydro-1H-inden-1-yl]amino}-1,3,5-triazin-2-yl)amino]-2-hydroxycyclopentyl}methyl sulfamate], where the note is “bound given in nM”, the IC50 was at most 500 nM.
